± gives the expanded uncertainty stated by the source.
Legend:
[1] = Crystal; visual observation
[2] = Molar enthalpy of transition or fusion; details: Crystal; DSC

In the case of `O=C(O)c1ccccc1Cl` [2-chlorobenzoic acid], the Normal melting temperature [1] is reported as 141.00 ± 0.4 °C and the “Molar enthalpy of transition or fusion” value [2] is reported as 6.58 ± 0.189 kcal/mol.

In the case of `NC(=O)c1ccccc1` [benzamide], the Normal melting temperature [1] is reported as 127.00 ± 0.4 °C and the “Molar enthalpy of transition or fusion” value [2] is reported as 5.53 ± 0.163 kcal/mol.

— the NIST ThermoML archive (doi:10.1021/je800848u)
